# Laboratory results as given in ChEMBL document CHEMBL4414596, “Highly Oxygenated Triterpenoids and Rare Tetraterpenoids from Abies chensiensis and Their Antibacterial Activity” (2019).
# The source made the active and inactive calls. The calls are words filed in the database; no cut-off is given here.
# What was measured:
# Escherichia coli = experiment: Antibacterial activity against Escherichia coli after 24 hrs by broth microdilution method; format: functional
# Klebsiella pneumoniae = experiment: Antibacterial activity against Klebsiella pneumoniae after 24 hrs by broth microdilution method; format: functional
# Staphylococcus aureus = experiment: Antibacterial activity against Staphylococcus aureus after 24 hrs by broth microdilution method; format: functional
# Bacillus subtilis [1] = experiment: Antibacterial activity against Bacillus subtilis after 24 hrs by broth microdilution method; format: functional
# Bacillus subtilis [2] = experiment: Induction of morphological changes in Bacillus subtilis assessed as cell disruption at 10 to 40 ug/ml after 24 hrs by SEM analysis; format: functional, organism-based
# Bacillus subtilis [3] = experiment: Induction of morphological changes in Bacillus subtilis assessed as slender shape at 10 to 40 ug/ml after 24 hrs by SEM analysis; format: functional, organism-based
# Bacillus subtilis [4] = experiment: Induction of morphological changes in Bacillus subtilis assessed as wrinkled surface at 10 to 40 ug/ml after 24 hrs by SEM analysis; format: functional, organism-based
# Bacillus subtilis [5] = experiment: Induction of morphological changes in Bacillus subtilis assessed as irregular size at 10 to 40 ug/ml after 24 hrs by SEM analysis; format: functional, organism-based
# Bacillus subtilis [6] = experiment: Antibacterial activity against Bacillus subtilis assessed as growth inhibition at 5 to 80 ug/ml after 2 to 26 hrs relative to control; format: functional
# Bacillus subtilis [7] = experiment: Antibacterial activity against Bacillus subtilis assessed as growth inhibition at 5 ug/ml after 10 hrs; format: functional, organism-based
# Bacillus subtilis [8] = experiment: Antibacterial activity against Bacillus subtilis assessed as growth inhibition at 10 to 80 ug/ml measured up to 26 hrs relative to control; format: functional
SMILES,MIC (Escherichia coli),MIC (Klebsiella pneumoniae),MIC (Staphylococcus aureus),MIC (Bacillus subtilis [1]),Activity (Bacillus subtilis [2]),Activity (Bacillus subtilis [3]),Activity (Bacillus subtilis [4]),Activity (Bacillus subtilis [5]),growth inhibition (GI) (Bacillus subtilis [6]),growth inhibition (GI) (Bacillus subtilis [7]),growth inhibition (GI) (Bacillus subtilis [8])
C/C(=C\CC[C@@H](C)[C@H]1[C@@H](O)[C@@H](O)[C@@]2(C)[C@@H]3CC[C@H]4C(C)(C)C(=O)CC[C@@]45C[C@@]35CC[C@]12C)C(=O)O,> 40 µg/mL,> 40 µg/mL,> 40 µg/mL,> 40 µg/mL,–,–,–,–,–,–,–
O=C(N[C@H](CO)[C@H](O)c1ccc([N+](=O)[O-])cc1)C(Cl)Cl [CHLORAMPHENICOL],> 40 µg/mL,> 40 µg/mL,20 µg/mL,5 µg/mL,–,–,–,–,–,–,–
C=C1CC[C@@](C)([C@H](C)CC(=O)[C@H]2CC(CCC=C(C)C)=CC[C@]2(C)C(=O)O)[C@@]12CCC1=C2CC[C@H]2C(C)(C)[C@@H](O)CC[C@]12C,> 40 µg/mL,> 40 µg/mL,> 40 µg/mL,> 40 µg/mL,–,–,–,–,–,–,–
C/C(=C\CC[C@@H](C)[C@H]1C[C@@H](O)[C@@]2(C)[C@@H]3CC[C@H]4C(C)(C)C(=O)CC[C@@]45C[C@@]35CC[C@]12C)C(=O)O,> 40 µg/mL,> 40 µg/mL,40 µg/mL,5 µg/mL,Active,Active,Active,Active,100%,–,–
C/C(=C\CC[C@@H](C)[C@H]1CC[C@@]2(C)[C@@H]3CC[C@H]4C(C)(C)C(=O)CC[C@@]45C[C@@]35CC[C@]12C)C(=O)O [MANGIFERONIC ACID],> 40 µg/mL,> 40 µg/mL,> 40 µg/mL,> 40 µg/mL,–,–,–,–,–,–,–
CC1=C[C@@H](C[C@@H](C)[C@H]2CC[C@@]3(C)[C@@H]4CC[C@H]5C(C)(C)[C@@H](O)CC[C@@]56C[C@@]46CC[C@]23C)OC1=O,> 40 µg/mL,> 40 µg/mL,> 40 µg/mL,> 40 µg/mL,–,–,–,–,–,–,–
C/C(=C\CC[C@@H](C)[C@H]1CC[C@@]2(C)[C@@H]3CC[C@H]4C(C)(C)[C@@H](O)CC[C@@]45C[C@@]35CC[C@]12C)C(=O)O [MANGIFEROLIC ACID],> 40 µg/mL,> 40 µg/mL,> 40 µg/mL,> 40 µg/mL,–,–,–,–,–,–,–
C/C(=C\[C@@H](O)C[C@@H](C)[C@H]1CC[C@@]2(C)[C@@H]3CC[C@H]4C(C)(C)[C@@H](O)CC[C@@]45C[C@@]35CC[C@]12C)C(=O)O,> 40 µg/mL,> 40 µg/mL,> 40 µg/mL,20 µg/mL,–,–,–,–,–,–,–
CO[C@@H]1CC[C@]23C[C@]24CC[C@]2(C)[C@@H]([C@H](C)CC/C=C(\C)C(=O)O)[C@@H](O)[C@@H](O)[C@@]2(C)[C@@H]4CC[C@H]3C1(C)C,> 40 µg/mL,> 40 µg/mL,20 µg/mL,20 µg/mL,–,–,–,–,–,–,–
CO[C@@H]1CC[C@]23C[C@]24CC[C@]2(C)[C@@H]([C@H](C)C[C@H](O)/C=C(\C)C(=O)O)CC[C@@]2(C)[C@@H]4CC[C@H]3C1(C)C,> 40 µg/mL,> 40 µg/mL,> 40 µg/mL,> 40 µg/mL,–,–,–,–,–,–,–
C/C(=C\CC[C@@H](C)[C@H]1C[C@@H](O)[C@@]2(C)[C@@H]3CC[C@H]4C(C)(C)[C@H](O)CC[C@@]45C[C@@]35CC[C@]12C)C(=O)O,> 40 µg/mL,> 40 µg/mL,> 40 µg/mL,10 µg/mL,–,–,–,–,–,–,–
C/C(=C\CC[C@@H](C)[C@H]1C[C@@H](O)[C@@]2(C)[C@@H]3CC[C@H]4C(C)(C)[C@@H](O)CC[C@@]45C[C@@]35CC[C@]12C)C(=O)O,> 40 µg/mL,> 40 µg/mL,20 µg/mL,10 µg/mL,–,–,–,–,–,Active,100%
CC1=C[C@@H](C[C@@H](C)[C@H]2C[C@@H](O)[C@@]3(C)[C@@H]4CC[C@H]5C(C)(C)[C@H](O)CC[C@@]56C[C@@]46CC[C@]23C)OC1=O,> 40 µg/mL,> 40 µg/mL,> 40 µg/mL,> 40 µg/mL,–,–,–,–,–,–,–
C[C@H](CC[C@H](O)[C@](C)(O)CO)[C@H]1CC[C@@]2(C)[C@@H]3CC[C@H]4C(C)(C)[C@@H](O)CC[C@@]45C[C@@]35CC[C@]12C (relative stereo),> 40 µg/mL,> 40 µg/mL,> 40 µg/mL,> 40 µg/mL,–,–,–,–,–,–,–
CN[C@@H]1[C@H](O[C@H]2[C@H](O[C@H]3[C@H](O)[C@@H](O)[C@H](N=C(N)N)[C@@H](O)[C@@H]3N=C(N)N)O[C@@H](C)[C@]2(O)C=O)O[C@@H](CO)[C@H](O)[C@H]1O [STREPTOMYCIN],5 µg/mL,5 µg/mL,–,–,–,–,–,–,–,–,–
C/C(=C\CC[C@@H](C)[C@H]1CC[C@@]2(C)[C@@H]3CC[C@H]4C(C)(C)[C@H](O)CC[C@@]45C[C@@]35CC[C@]12C)C(=O)O [ISOMANGIFEROLIC ACID],> 40 µg/mL,> 40 µg/mL,> 40 µg/mL,> 40 µg/mL,–,–,–,–,–,–,–
C[C@H](CC[C@@H](O)C(C)(C)O)[C@H]1CC[C@@]2(C)[C@@H]3CC[C@H]4C(C)(C)C(=O)CC[C@@]45C[C@@]35CC[C@]12C,> 40 µg/mL,> 40 µg/mL,> 40 µg/mL,> 40 µg/mL,–,–,–,–,–,–,–
CC1(C)S[C@@H]2[C@H](NC(=O)[C@H](N)c3ccccc3)C(=O)N2[C@H]1C(=O)O [AMPICILLIN],> 40 µg/mL,> 40 µg/mL,40 µg/mL,> 40 µg/mL,–,–,–,–,–,–,–
C/C(=C\[C@@H](O)C[C@@H](C)[C@H]1CC[C@@]2(C)C3=C(CC[C@]12C)[C@@]1(C)CCC(=O)C(C)(C)[C@@H]1CC3)C(=O)O,> 40 µg/mL,> 40 µg/mL,40 µg/mL,10 µg/mL,–,–,–,–,–,–,–
CO[C@@H]1CC[C@]23C[C@]24CC[C@]2(C)[C@@H]([C@H](C)CC/C=C(\C)C(=O)O)C[C@@H](O)[C@@]2(C)[C@@H]4CC[C@H]3C1(C)C,> 40 µg/mL,> 40 µg/mL,> 40 µg/mL,20 µg/mL,–,–,–,–,–,–,–
C[C@H](CC[C@H](O)[C@](C)(O)CO)[C@H]1CC[C@@]2(C)[C@@H]3CC[C@H]4C(C)(C)C(=O)CC[C@@]45C[C@@]35CC[C@]12C (relative stereo),> 40 µg/mL,> 40 µg/mL,> 40 µg/mL,> 40 µg/mL,–,–,–,–,–,–,–
CC1=CC(O)(C[C@@H](C)[C@H]2CC[C@@]3(C)C4=C(CC[C@]23C)[C@@]2(C)CCC(=O)C(C)(C)[C@@H]2CC4)OC1=O (some centres not stated),> 40 µg/mL,> 40 µg/mL,> 40 µg/mL,> 40 µg/mL,–,–,–,–,–,–,–
C=C1CC[C@@](C)([C@H](C)CC(=O)C[C@@H](C)C(=O)O)[C@@]12CCC1=C2CC[C@H]2C(C)(C)C(=O)CC[C@]12C,> 40 µg/mL,> 40 µg/mL,40 µg/mL,10 µg/mL,–,–,–,–,–,–,–
